Consider 13 molecules from PubChem BioAssay (NCI).

Test systems include RPMI-8226 leukemia; HT29 colon; HOP-62 NSCLC; NCI-H226 lung; SF-295 CNS; SW-620 colon; OVCAR-4 ovarian; SF-539 CNS; MCF7 breast; HOP-92 NSCLC.
Common to all, as to test: NCI anticancer screen, dose series, 48 h

In brackets after ≈: the same amount, converted by molar mass.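 Assay format: 96-well plates, 48-hour exposure. Abbreviation: GI50, concentration required for 50% inhibition of growth. TGI: total growth inhibition.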

Turning to `COc1ccc(-n2c3c(c4cc(O)ccc42)Cc2ccccc2C3=O)cc1`, the TGI with RPMI-8226 leukemia is 32.7 µM; in the experiment on HT29 colon it was more than 100 µM; in the experiment on HOP-62 NSCLC, more than 100 µM; in the experiment with NCI-H226 lung, more than 100 µM; in the experiment on SF-295 CNS it was 86.7 µM; in the experiment on SW-620 colon, more than 100 µM. The TGI with OVCAR-4 ovarian was 82.1 µM; in the experiment on SF-539 CNS, more than 100 µM; in the experiment with MCF7 breast, 79.7 µM.

In the case of `CCOCC(=O)N(C)c1cccc2c3c(n(C)c12)CCCCC3`, the TGI in the experiment with HOP-92 NSCLC, in the experiment on HT29 colon, in the experiment on HOP-62 NSCLC, in the experiment on NCI-H226 lung, in the experiment with SF-295 CNS and with SW-620 colon was more than 100 µM in each case. Further, the TGI with OVCAR-4 ovarian, in the experiment with SF-539 CNS and with MCF7 breast was more than 100 µM in each case.

As to `CC1C(=O)c2cc3c(cc2CCN(C)Cc2c1ccc1c2OCO1)OCO3` (stereo not drawn), the GI50 is more than 75 mg/L in the experiment on HOP-92 NSCLC; 34.6 mg/L (≈ 94.3 µM) with RPMI-8226 leukemia; 19.6 mg/L (≈ 53.5 µM) with HT29 colon; more than 75 mg/L with HOP-62 NSCLC; more than 75 mg/L in the experiment on NCI-H226 lung; more than 75 mg/L in the experiment on SF-295 CNS. The GI50 is more than 75 mg/L in the experiment on SW-620 colon, 44.4 mg/L (≈ 121 µM) in the experiment with OVCAR-4 ovarian, 71.2 mg/L (≈ 194 µM) with SF-539 CNS and 48.5 mg/L (≈ 132 µM) with MCF7 breast. Moreover, the TGI in the experiment with HOP-92 NSCLC, in the experiment with RPMI-8226 leukemia, with HT29 colon, with HOP-62 NSCLC, with NCI-H226 lung and in the experiment on SF-295 CNS was more than 75 mg/L each time. In addition, the TGI with SW-620 colon, in the experiment on OVCAR-4 ovarian, in the experiment with SF-539 CNS and in the experiment on MCF7 breast was more than 75 mg/L throughout.

In the case of `O=C(O)C1CCCCN1C(=O)Cc1c[nH]c2ccccc12` (stereo not drawn), the TGI with HOP-92 NSCLC, with RPMI-8226 leukemia, with HT29 colon, in the experiment on HOP-62 NSCLC, in the experiment with NCI-H226 lung and in the experiment with SF-295 CNS was more than 100 µM each time. Further, the TGI with SW-620 colon, in the experiment with OVCAR-4 ovarian, with SF-539 CNS and in the experiment with MCF7 breast was more than 100 µM each time.

Regarding `Cc1oc(N)c(S(=O)(=O)c2cc3ccccc3n(O)c2=N)c1C`, the TGI in the experiment with HOP-92 NSCLC, in the experiment on RPMI-8226 leukemia, with HT29 colon, in the experiment on HOP-62 NSCLC, in the experiment with NCI-H226 lung and in the experiment on SF-295 CNS was more than 100 µM throughout. Besides, the TGI in the experiment on SW-620 colon, in the experiment with OVCAR-4 ovarian, in the experiment on SF-539 CNS and with MCF7 breast was more than 100 µM in each case.

As for `CCOC(=O)c1c(-c2cccc(Cl)c2)c(C(=O)OC)c(C)c2sc(C=O)nc12`, the TGI in the experiment with HOP-92 NSCLC was 34.2 µM; with RPMI-8226 leukemia, 46.4 µM; with HT29 colon it was 49.5 µM; with HOP-62 NSCLC, 28.8 µM; in the experiment on NCI-H226 lung, 44.2 µM; with SF-295 CNS, 32.5 µM. Besides, the TGI was more than 100 µM in the experiment with SW-620 colon, 40.3 µM with OVCAR-4 ovarian, 35.4 µM with SF-539 CNS and 35.7 µM in the experiment with MCF7 breast.

`O=C(/C=C1\N=C(c2ccccc2)N(c2nc3c(Cl)cc(Cl)cc3s2)C1=O)/C=C/c1ccccc1`: the TGI in the experiment with HOP-92 NSCLC, in the experiment on RPMI-8226 leukemia, with HT29 colon, with HOP-62 NSCLC, with SF-295 CNS and in the experiment with SW-620 colon was more than 100 µM each time. Moreover, the TGI with OVCAR-4 ovarian and in the experiment on MCF7 breast was more than 100 µM in each case.

As for `COC(=O)C1CC23C4=C(CCC41)CCC1CN4CC(C)C(CC(OC(C)=O)C12COC(C)=O)C43O` (stereo not drawn), the TGI in the experiment on HOP-92 NSCLC, with RPMI-8226 leukemia, in the experiment on HT29 colon, in the experiment on HOP-62 NSCLC, with SF-295 CNS and in the experiment on SW-620 colon was more than 100 µM each time. Besides, the TGI in the experiment on OVCAR-4 ovarian, in the experiment on SF-539 CNS and with MCF7 breast was more than 100 µM in each case.

As for `C[N+]1(CCC(=O)c2ccccc2)CCC2CCC(C2)C1` (stereo not drawn), the TGI with HOP-92 NSCLC, in the experiment with RPMI-8226 leukemia, with HT29 colon, in the experiment on HOP-62 NSCLC, in the experiment with NCI-H226 lung and with SF-295 CNS was more than 100 µM throughout. The TGI in the experiment on SW-620 colon, with OVCAR-4 ovarian, in the experiment with SF-539 CNS and with MCF7 breast was more than 100 µM each time.

As to `CN(C)C(=O)OC1=CC2CCC(C1)N2C` (stereo not drawn), the TGI in the experiment on HOP-92 NSCLC, in the experiment on RPMI-8226 leukemia, in the experiment on HT29 colon, in the experiment with HOP-62 NSCLC, in the experiment with NCI-H226 lung and in the experiment on SF-295 CNS was more than 100 µM throughout. For the same molecule, the TGI in the experiment with SW-620 colon, in the experiment with OVCAR-4 ovarian, in the experiment with SF-539 CNS and in the experiment on MCF7 breast was more than 100 µM in each case.

As to `O=C1/C(=C/c2[nH]ncc2-c2ccc(Cl)cc2)C(=O)N(c2ccccc2)C1c1ccccc1` (stereo not drawn), the TGI came to 76 µM in the experiment on HOP-92 NSCLC; 32.2 µM in the experiment on RPMI-8226 leukemia; 27.5 µM in the experiment on HT29 colon; 63.2 µM with HOP-62 NSCLC; 67.3 µM in the experiment with NCI-H226 lung; 50.7 µM with SF-295 CNS. Besides, the TGI in the experiment with SW-620 colon was 45.2 µM; in the experiment on OVCAR-4 ovarian, 96.5 µM; in the experiment with SF-539 CNS, 58.8 µM; in the experiment with MCF7 breast, more than 100 µM.

`Cc1n[n+]([O-])c(C)cc1[N+](=O)[O-]`: the TGI in the experiment on HOP-92 NSCLC is 34.3 µM; in the experiment on RPMI-8226 leukemia, 6.31 µM; in the experiment on HT29 colon it was 27 µM; in the experiment with HOP-62 NSCLC, 42.7 µM; with NCI-H226 lung, 60 µM; in the experiment with SW-620 colon it was 28.2 µM. Moreover, the TGI with OVCAR-4 ovarian is 33.5 µM; in the experiment on SF-539 CNS, 59.3 µM; in the experiment on MCF7 breast, 45.6 µM.

Regarding `Cc1ccc2nc(-c3ccc(NC(=O)c4ccc(N)cc4)c(S(=O)(=O)O)c3)sc2c1`, the TGI with HOP-92 NSCLC, with RPMI-8226 leukemia, in the experiment with HT29 colon, in the experiment on HOP-62 NSCLC, in the experiment with NCI-H226 lung and in the experiment with SF-295 CNS was more than 100 µM in each case. The TGI in the experiment on SW-620 colon, in the experiment on OVCAR-4 ovarian and with MCF7 breast was more than 100 µM throughout.
